Reference: the NIST ThermoML archive (doi:10.1016/j.tca.2014.10.002)
Where “and” joins values, the source holds several entries; their conditions need not be identical. Identical values can stand only once. Numbers after ± are expanded uncertainties.

Experiments:
[1] = Crystal; DTA
[2] = Molar enthalpy of transition or fusion; conditions: Crystal; DSC
[3] = molar heat capacity at constant pressure; conditions: 101.33 kPa, Large sample (1 g) DSC

In the case of OC1CCC1 [cyclobutanol], the Normal melting temperature [1] is reported as -45.61 ± 0.39 °C, the “Molar enthalpy of transition or fusion” value [2] is reported as 7.91 ± 0.37 kJ/mol and the “molar heat capacity at constant pressure” value ([3]; 258.09 K, Liquid) is reported as 132.4 ± 2.3 J/K/mol and 132.7 ± 2.3 J/K/mol. For the same compound, the “molar heat capacity at constant pressure” value ([3]; 263.2 K, Liquid) was 134.8 ± 2.3 J/K/mol and 134.7 ± 2.3 J/K/mol, the “molar heat capacity at constant pressure” value ([3]; 268.3 K, Liquid) was 137 ± 2.4 J/K/mol and 137.2 ± 2.4 J/K/mol and the “molar heat capacity at constant pressure” value ([3]; 273.41 K, Liquid) was 139.4 ± 2.4 J/K/mol. The “molar heat capacity at constant pressure” value ([3]; 278.51 K, Liquid) was 141.8 ± 2.5 J/K/mol, the “molar heat capacity at constant pressure” value ([3]; 283.62 K, Liquid) was 144.6 ± 2.5 J/K/mol and 144.4 ± 2.5 J/K/mol and the “molar heat capacity at constant pressure” value ([3]; 288.72 K, Liquid) was 147.4 ± 2.6 J/K/mol and 147.3 ± 2.6 J/K/mol. For the same compound, the “molar heat capacity at constant pressure” value ([3]; 293.83 K, Liquid) was 150.5 ± 2.6 J/K/mol and 150.2 ± 2.6 J/K/mol, the “molar heat capacity at constant pressure” value ([3]; 298.93 K, Liquid) was 153.7 ± 2.7 J/K/mol and 153.8 ± 2.7 J/K/mol and the “molar heat capacity at constant pressure” value ([3]; 304.04 K, Liquid) was 157 ± 2.7 J/K/mol and 157.1 ± 2.7 J/K/mol. The “molar heat capacity at constant pressure” value ([3]; 309.14 K, Liquid) was 160.5 ± 2.8 J/K/mol, the “molar heat capacity at constant pressure” value ([3]; 314.25 K, Liquid) was 164.1 ± 2.8 J/K/mol and 164 ± 2.8 J/K/mol and the “molar heat capacity at constant pressure” value ([3]; 319.35 K, Liquid) was 168 ± 2.9 J/K/mol and 167.9 ± 2.9 J/K/mol. The “molar heat capacity at constant pressure” value ([3]; 324.46 K, Liquid) was 171.9 ± 3 J/K/mol and 171.6 ± 3 J/K/mol, the “molar heat capacity at constant pressure” value ([3]; 329.57 K, Liquid) was 175.4 ± 3 J/K/mol and the “molar heat capacity at constant pressure” value ([3]; 334.67 K, Liquid) was 179.4 ± 3.1 J/K/mol. The “molar heat capacity at constant pressure” value ([3]; 339.77 K, Liquid) was 183.6 ± 3.2 J/K/mol and 183.1 ± 3.2 J/K/mol, the “molar heat capacity at constant pressure” value ([3]; 344.88 K, Liquid) was 187.5 ± 3.2 J/K/mol and 187 ± 3.2 J/K/mol and the “molar heat capacity at constant pressure” value ([3]; 349.98 K, Liquid) was 191.6 ± 3.3 J/K/mol. For the same compound, the “molar heat capacity at constant pressure” value ([3]; 355.09 K, Liquid) was 195.6 ± 3.4 J/K/mol.
With OC1CCCCCC1 [cycloheptanol] the “molar heat capacity at constant pressure” value ([3]; 260.59 K, Crystal) was 195.3 ± 3.4 J/K/mol, the “molar heat capacity at constant pressure” value ([3]; 260.73 K, Crystal) was 195.4 ± 3.4 J/K/mol and the “molar heat capacity at constant pressure” value ([3]; 262 K, Crystal) was 196.4 ± 3.4 J/K/mol and 196.5 ± 3.4 J/K/mol. The “molar heat capacity at constant pressure” value ([3]; 264 K, Crystal) was 198 ± 3.4 J/K/mol and 198.1 ± 3.4 J/K/mol, the “molar heat capacity at constant pressure” value ([3]; 266 K, Crystal) was 199.8 ± 3.5 J/K/mol and the “molar heat capacity at constant pressure” value ([3]; 268 K, Crystal) was 201.8 ± 3.5 J/K/mol and 201.7 ± 3.5 J/K/mol. The “molar heat capacity at constant pressure” value ([3]; 270 K, Crystal) was 204 ± 3.5 J/K/mol, the “molar heat capacity at constant pressure” value ([3]; 271.34 K, Crystal) was 205.2 ± 3.6 J/K/mol and the “molar heat capacity at constant pressure” value ([3]; 271.43 K, Crystal) was 205.4 ± 3.6 J/K/mol. For the same compound, the “molar heat capacity at constant pressure” value ([3]; 286.01 K, Liquid) was 236.1 ± 4.1 J/K/mol, the “molar heat capacity at constant pressure” value ([3]; 286.13 K, Liquid) was 236.3 ± 4.1 J/K/mol and the “molar heat capacity at constant pressure” value ([3]; 290 K, Liquid) was 240.6 ± 4.2 J/K/mol. The “molar heat capacity at constant pressure” value ([3]; 295 K, Liquid) was 246.5 ± 4.3 J/K/mol, the “molar heat capacity at constant pressure” value ([3]; 300 K, Liquid) was 252.3 ± 4.4 J/K/mol and the “molar heat capacity at constant pressure” value ([3]; 305 K, Liquid) was 258.1 ± 4.5 J/K/mol and 258.2 ± 4.5 J/K/mol. The “molar heat capacity at constant pressure” value ([3]; 310 K, Liquid) was 263.8 ± 4.6 J/K/mol, the “molar heat capacity at constant pressure” value ([3]; 315 K, Liquid) was 269.4 ± 4.7 J/K/mol and 269.5 ± 4.7 J/K/mol and the “molar heat capacity at constant pressure” value ([3]; 320 K, Liquid) was 274.8 ± 4.8 J/K/mol and 274.9 ± 4.8 J/K/mol. The “molar heat capacity at constant pressure” value ([3]; 325 K, Liquid) was 280.3 ± 4.9 J/K/mol and 280.2 ± 4.9 J/K/mol, the “molar heat capacity at constant pressure” value ([3]; 330 K, Liquid) was 285.3 ± 4.9 J/K/mol and 285.2 ± 4.9 J/K/mol and the “molar heat capacity at constant pressure” value ([3]; 335 K, Liquid) was 289.9 ± 5 J/K/mol and 290 ± 5 J/K/mol. For the same compound, the “molar heat capacity at constant pressure” value ([3]; 340 K, Liquid) was 294.4 ± 5.1 J/K/mol, the “molar heat capacity at constant pressure” value ([3]; 345 K, Liquid) was 299.2 ± 5.2 J/K/mol and the “molar heat capacity at constant pressure” value ([3]; 350 K, Liquid) was 303.6 ± 5.3 J/K/mol. The “molar heat capacity at constant pressure” value ([3]; 354.82 K, Liquid) was 307.6 ± 5.3 J/K/mol, the “molar heat capacity at constant pressure” value ([3]; 355 K, Liquid) was 307.7 ± 5.3 J/K/mol and the “molar heat capacity at constant pressure” value ([3]; 357.82 K, Liquid) was 309.7 ± 5.4 J/K/mol.
In the case of OC1CCCC1 [cyclopentanol], the “molar heat capacity at constant pressure” value ([3]; 265.06 K, Liquid) is reported as 157.6 ± 2.7 J/K/mol, the “molar heat capacity at constant pressure” value ([3]; 270 K, Liquid) is reported as 160.7 ± 2.8 J/K/mol and the “molar heat capacity at constant pressure” value ([3]; 275 K, Liquid) is reported as 164.2 ± 2.8 J/K/mol. For the same compound, the “molar heat capacity at constant pressure” value ([3]; 280 K, Liquid) was 167.8 ± 2.9 J/K/mol and 167.9 ± 2.9 J/K/mol, the “molar heat capacity at constant pressure” value ([3]; 285 K, Liquid) was 171.6 ± 3 J/K/mol and 171.7 ± 3 J/K/mol and the “molar heat capacity at constant pressure” value ([3]; 290 K, Liquid) was 175.7 ± 3 J/K/mol and 175.9 ± 3 J/K/mol. The “molar heat capacity at constant pressure” value ([3]; 295 K, Liquid) was 180 ± 3.1 J/K/mol and 180.1 ± 3.1 J/K/mol, the “molar heat capacity at constant pressure” value ([3]; 300 K, Liquid) was 184.3 ± 3.2 J/K/mol and 184.4 ± 3.2 J/K/mol and the “molar heat capacity at constant pressure” value ([3]; 305 K, Liquid) was 188.6 ± 3.3 J/K/mol and 188.7 ± 3.3 J/K/mol. For the same compound, the “molar heat capacity at constant pressure” value ([3]; 310 K, Liquid) was 193 ± 3.3 J/K/mol and 193.1 ± 3.3 J/K/mol, the “molar heat capacity at constant pressure” value ([3]; 315 K, Liquid) was 197.4 ± 3.4 J/K/mol and 197.6 ± 3.4 J/K/mol and the “molar heat capacity at constant pressure” value ([3]; 320 K, Liquid) was 201.8 ± 3.5 J/K/mol and 202 ± 3.5 J/K/mol. The “molar heat capacity at constant pressure” value ([3]; 325 K, Liquid) was 206.2 ± 3.6 J/K/mol and 206.4 ± 3.6 J/K/mol, the “molar heat capacity at constant pressure” value ([3]; 330 K, Liquid) was 210.5 ± 3.6 J/K/mol and 210.7 ± 3.7 J/K/mol and the “molar heat capacity at constant pressure” value ([3]; 335 K, Liquid) was 215 ± 3.7 J/K/mol and 215.1 ± 3.7 J/K/mol. The “molar heat capacity at constant pressure” value ([3]; 340 K, Liquid) was 219.5 ± 3.8 J/K/mol, the “molar heat capacity at constant pressure” value ([3]; 345 K, Liquid) was 223.8 ± 3.9 J/K/mol and 223.7 ± 3.9 J/K/mol and the “molar heat capacity at constant pressure” value ([3]; 350 K, Liquid) was 228.1 ± 4 J/K/mol and 228 ± 4 J/K/mol. For the same compound, the “molar heat capacity at constant pressure” value ([3]; 354.91 K, Liquid) was 232 ± 4 J/K/mol, the “molar heat capacity at constant pressure” value ([3]; 355 K, Liquid) was 232 ± 4 J/K/mol and the “molar heat capacity at constant pressure” value ([3]; 357.78 K, Liquid) was 234.1 ± 4.1 J/K/mol.
In the case of OC1CCCCC1 [cyclohexanol], the “molar heat capacity at constant pressure” value ([3]; 261.42 K, Crystal) is reported as 162.6 ± 2.8 J/K/mol, the “molar heat capacity at constant pressure” value ([3]; 261.48 K, Crystal) is reported as 162.8 ± 2.8 J/K/mol and the “molar heat capacity at constant pressure” value ([3]; 264 K, Crystal) is reported as 164.5 ± 2.9 J/K/mol and 164.7 ± 2.9 J/K/mol. For the same compound, the “molar heat capacity at constant pressure” value ([3]; 267 K, Crystal) was 166.8 ± 2.9 J/K/mol and 167 ± 2.9 J/K/mol, the “molar heat capacity at constant pressure” value ([3]; 270 K, Crystal) was 169.1 ± 2.9 J/K/mol and 169.4 ± 2.9 J/K/mol and the “molar heat capacity at constant pressure” value ([3]; 273 K, Crystal) was 171.7 ± 3 J/K/mol and 172 ± 3 J/K/mol. The “molar heat capacity at constant pressure” value ([3]; 276 K, Crystal) was 174.5 ± 3 J/K/mol and 174.9 ± 3 J/K/mol, the “molar heat capacity at constant pressure” value ([3]; 279 K, Crystal) was 177.4 ± 3.1 J/K/mol and 177.9 ± 3.1 J/K/mol and the “molar heat capacity at constant pressure” value ([3]; 282 K, Crystal) was 180.8 ± 3.1 J/K/mol and 181.4 ± 3.1 J/K/mol. The “molar heat capacity at constant pressure” value ([3]; 284.5 K, Crystal) was 184.9 ± 3.2 J/K/mol, the “molar heat capacity at constant pressure” value ([3]; 284.95 K, Crystal) was 184.8 ± 3.2 J/K/mol and the “molar heat capacity at constant pressure” value ([3]; 305.05 K, Liquid) was 218.3 ± 3.8 J/K/mol. The “molar heat capacity at constant pressure” value ([3]; 305.18 K, Liquid) was 218.6 ± 3.8 J/K/mol, the “molar heat capacity at constant pressure” value ([3]; 310 K, Liquid) was 223.8 ± 3.9 J/K/mol and 224 ± 3.9 J/K/mol and the “molar heat capacity at constant pressure” value ([3]; 315 K, Liquid) was 229.6 ± 4 J/K/mol and 229.7 ± 4 J/K/mol. The “molar heat capacity at constant pressure” value ([3]; 320 K, Liquid) was 235.5 ± 4.1 J/K/mol and 235.3 ± 4.1 J/K/mol, the “molar heat capacity at constant pressure” value ([3]; 325 K, Liquid) was 241.3 ± 4.2 J/K/mol and 241.1 ± 4.2 J/K/mol and the “molar heat capacity at constant pressure” value ([3]; 330 K, Liquid) was 246.7 ± 4.3 J/K/mol and 246.8 ± 4.3 J/K/mol. For the same compound, the “molar heat capacity at constant pressure” value ([3]; 335 K, Liquid) was 252 ± 4.4 J/K/mol and 252.2 ± 4.4 J/K/mol, the “molar heat capacity at constant pressure” value ([3]; 340 K, Liquid) was 257.4 ± 4.5 J/K/mol and 257.6 ± 4.5 J/K/mol and the “molar heat capacity at constant pressure” value ([3]; 345 K, Liquid) was 262.8 ± 4.6 J/K/mol and 263 ± 4.6 J/K/mol. The “molar heat capacity at constant pressure” value ([3]; 350 K, Liquid) was 268 ± 4.6 J/K/mol, the “molar heat capacity at constant pressure” value ([3]; 355 K, Liquid) was 272.3 ± 4.7 J/K/mol and 272.5 ± 4.7 J/K/mol and the “molar heat capacity at constant pressure” value ([3]; 357.82 K, Liquid) was 274.7 ± 4.8 J/K/mol. The “molar heat capacity at constant pressure” value ([3]; 357.94 K, Liquid) was 274.7 ± 4.8 J/K/mol.
